Data taken from patent publication EP0713876A1, “Triazine derivative, chymase activity inhibitor and nitric oxide production inhibitor” (Wakamoto Pharmaceutical Co., Ltd., priority 1994, dated 1996).
Marks after values point to notes of the source that are not given here.

Key:
rat mast cell chymase = target: T1, rat mast cell chymase (Rattus norvegicus, UniProt P09650); assay: Inhibition of chymase activity (chromogenic substrate N-Suc-Ala-Ala-Pro-Phe-p-nitroanilide); type: biochemical; conditions: 10⁻⁵ M test compound
T1 construct: Chymase was partially purified from rat peritoneal cavity mast cells; from tissue; host or cells: peritoneal cavity mast cells of male Sprague Dawley rats
T1 sequence (P09650 21-260): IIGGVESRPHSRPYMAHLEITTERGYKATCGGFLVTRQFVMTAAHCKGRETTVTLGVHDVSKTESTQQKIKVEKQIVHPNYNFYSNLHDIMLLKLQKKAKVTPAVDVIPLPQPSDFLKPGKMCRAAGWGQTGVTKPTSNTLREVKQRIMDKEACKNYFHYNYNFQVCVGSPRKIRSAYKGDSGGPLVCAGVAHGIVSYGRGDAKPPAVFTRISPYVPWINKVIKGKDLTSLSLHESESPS
Procedure: Mast cells were obtained from the peritoneal cavity of male Sprague Dawley(SD) rats by the method of Graziano et al. (Methods in Enzymol., 162, 501-514, 1988), layered on 75% Percoll (Pharmacia Biotech), and then purified to over 90% purity by centrifugation at 150xG for 15 min.
Chymase was partially purified from rat peritoneal cavity mast cells by the method of Kido et al. (Arch. Biochem. Biophys., 239, 436-443, 1985). Purified mast cells were quickly frozen and thawed several times and homogenized in a low ionic strength-buffer (pH6.5). The homogenate was centrifuged at 20,000xG for 20 min. The precipitate was re-homogenized in a high ionic strength-buffer (pH8.0) and cetrifuged at 20,000xG for 20 min. The supernatant was recovered and the enzyme was extracted. From the crude extract, chymase was partially purified by an Octyl-Sepharose CL-4B (Pharmacia Biotech) hydrophobic chromatography.
Ten microliters of test compounds in dimethyl sulfoxide (DMSO) were mixed with 250 µl of 60 mM Tris-HCl buffer (pH8.0) containing 0.2 M NaCl and 250 µl of 1 µg/ml chymase in buffer. The mixtures were pre-incubated for 5 min. at 37°C . After the addition of 500 µl of 0.6 mM chromogenic substrate, N-Suc-Ala-Ala-Pro-Phe-p-nitroanilide (Sigma), the reactions were carried out for 30 min. at 37 °C , and then stopped by the addition of 50 µl of 0.75 M acetic acid. The absorbances at 405nm were measured in a spectrophotometer, and the amount of p-nitroaniline released from the substrate was measured.
Calculations of the inhibition% of chymase by test compounds were carried out as below. Inhibition% = {1-(a-a' )/(b-b' ) } x 100 (%) [formula] a; the absorbance in presence of test compound. a'; the absorbance of non-reaction in presence of test compound. b; the absorbance in absence of test compound. b'; the absorbance of non-reaction in absence of test compound.
IC₅₀ values were expressed as the concentrations (M) of test compounds producing 50% inhibition.

ICR mice = assay: Single-dose toxicity; type: in vivo; conditions: male ICR mice, p.o. 500 mg/kg single dose, observed for 14 days
Procedure: Ten Male ICR mice (4-week-old) were housed in each group. Test compounds were suspended in 0.5% aqueous sodium methyl cellulose, and then administered p.o. at the dose of 500 mg/kg to mice. Animals were then observed for 14 days and the mortality rate was determined. […]

[1] = test system: mouse macrophage cell line, RAW264; assay: Inhibition of LPS-induced nitric oxide (NO) production, nitrite by Griess reaction; type: cell-based; conditions: 10⁻⁵ M test compound, RAW264, 1 µg/ml LPS, 36hr
Procedure: The mouse macrophage cell line, RAW264, obtained from the Riken Cell Bank, was cultured in RPMI-1640 medium without phenol red containing 10% inactivated fetal bovine serum and 100 µg/ml kanamycin at 37°C in 5% CO₂ in air. Cells were seeded into 96-well tissue culture plates (6x10⁴ cells/well) and allowed to adhere for 4 hr at 37 °C . To assess the effects of test compounds on induction of NO production, 100 µl of fresh culture medium containing them were added to the medium, followed by the additions of 1 µg/ml of LPS (E Coli 055, derived from B5 cell line, DIFCO Co.) to activate macrophage cells. At the same time, cultivation was conducted in the presence or absence of a test compound.
Since the measurement of NO is difficult due to the unstableness of NO, the nitrite ion (NO₂⁻) which is the oxidation product of NO was measured.
Productions of NO were assayed by measuring the concentrations of NO₂⁻ in culture medium by the Griess reaction by the method of Green et al. (Anal. Biochem., 126, 131-138, 1982). Nitrite accumulation in the cell culture medium was measured 36hr after LPS-stimulations. One hundred microliters of Griess reagents (1% sulfanylamide and 0.1% N-1-naphthylethylenediamine dichloride in 5% phosphoric acid) were added to 100 µl of cell culture medium at a room temperature. After 10 min, the optical densities at 550 nm (OD550) were measured by using a microplate reader.
In unstimulated RAW264 macrophages, NO₂⁻ production for 36 hr was not determined in the presence or absence of test compounds. Calculations of the inhibition% of NO production by the test compounds were carried out as depicted below. Inhibition% = (1-a/b)x100(%) [formula] a; the OD550 in presence of test compound b; the OD550 in absence of test compound IC₅₀ values were expressed as the concentrations (M) of test compounds producing 50% inhibition.

SMILES	Inhibition (%) of chymase at a concentration of 10⁻⁵ M (rat mast cell chymase)	The number of death/ The number of animal (ICR mice)	Inhibition (%) of NO production at the concentration of 10⁻⁵ M [1]
CCOc1nnc([S+]([O-])CC)n2ccnc12 (stereo not drawn) [Example 46, 8-ethoxy-5-ethylsulfinylimidazo[1,2-d][1.2.4]triazine]	5 % *		
CCOC(=O)COc1nnc([S+]([O-])CC(=O)OCC)n2ccnc12 (stereo not drawn) [Example 52, 8-ethoxycarbonylmethyloxy-5-ethoxycarbonylmeth ylsulfinylimidazo[1,2-d][1.2.4]triazine]	39% *		
CC(C)c1ccc(COc2nnc([S+]([O-])Cc3ccc(C(C)C)cc3)n3ccnc23)cc1 (stereo not drawn) [Example 38, 8-(4-isopropylbenzyloxy)-5-(4-isopropylbenzylsulfinyl) imidazo[1,2-d][1,2,4]triazine]	41% *		
[O-][S+](Cc1ccc(Cl)cc1)c1nnc(O)c2cccn12 (stereo not drawn) [Example 29, 4-(4-chlorobenzylsulfinyl)-1-hydroxypyrrolo[1,2-d][1.2.4]triazine]		0/10	
Cc1ncn2c([S+]([O-])Cc3ccc(Cl)cc3)nn(Cc3ccc(Cl)cc3)c(=O)c12 (stereo not drawn) [Example 54, 2-(4-chlorobenzyl)-4-(4-chlorobenzylsulfinyl)-8-methyl imidazo[1,5-d][1.2.4]triazine-1(2H)-one]		0/10	
[O-][S+](CCCCl)c1nnc(OCCCCl)c2nccn12 (stereo not drawn) [Example 51, 8-(3-chloropropoxy)-5-(3-chloropropyl)sulfinylimidazo[1,2-d][1.2.4]triazine]	50% *		
N#Cc1ccc(COc2nnc([S+]([O-])Cc3ccc(C#N)cc3)n3ccnc23)cc1 (stereo not drawn) [Example 41, 8-(4-cyanobenzyloxy)-5-(4-cyanobenzylsulfinyl)imidazo[1,2-d][1.2.4]triazine]			49 * %
[O-][S+](Cc1ccc(Cl)cc1)c1nnc(OCc2ccc(Cl)cc2)c2nccn12 (stereo not drawn) [Example 35, 8-(4-chlorobenzyloxy)-5-(4-chlorobenzylsulfinyl)imidazo[1,2-d][1.2.4]triazine]		0/10	20 * %
CCn1nc([S+]([O-])CC)n2cnc(C)c2c1=O (stereo not drawn) [Example 56, 2-ethyl-4-ethylsulfinyl-8-methylimidazo[1,5-d][1.2.4]triazine-1(2H)-one]	8% *		
[O-][S+](Cc1cccc(Cl)c1)c1nnc(OCc2cccc(Cl)c2)c2nccn12 (stereo not drawn) [Example 40, 8-(3-chlorobenzyloxy)-5-(3-chlorobenzylsulfinyl)imidazo[1,2-d][1.2.4]triazine]			32 * %
[O-][S+](Cc1ccc(C(F)(F)F)cc1)c1nnc(OCc2ccc(C(F)(F)F)cc2)c2nccn12 (stereo not drawn) [Example 42, 8-(4-trifluoromethylbenzyloxy)-5-(4-trifluoromethylbenzylsulfinyl)imidazo[1,2-d][1.2.4]triazine]	11%*		8 * %
CCOc1nnc([S+]([O-])CC)n2cnc(C)c12 (stereo not drawn) [Example 55, 1-ethoxy-4-ethylsulfinyl-8-methylimidazo[1,5-d][1.2.4]triazine]	22% *		
[O-][S+](Cc1ccc(Cl)cc1)c1nnc(OCc2ccc(Cl)cc2)c2cccn12 (stereo not drawn) [Example 36, 1-(4-chlorobenzyloxy)-4-(4-chlorobenzylsulfinyl)pyrrolo [1,2-d][1.2.4]triazine]			31 * %
[O-][S+](Cc1ccc(Cl)cc1)c1nnc(O)c2nccn12 (stereo not drawn) [Example 31, 5-(4-chlorobenzylsulfinyl)-8-hydroxyimidazo[1,2-d][1.2.4]triazine]		0/10	
Cc1ncn2c([S+]([O-])Cc3ccc(Cl)cc3)nnc(OCc3ccc(Cl)cc3)c12 (stereo not drawn) [Example 53, 1-(4-chlorobenzyloxy)-4-(4-chlorobenzylsulfinyl)-8-methylimidazo[1,5-d][1.2.4]triazine]		0/10	
Cc1ncn2c([S+]([O-])Cc3ccc(Cl)cc3)nnc(O)c12 (stereo not drawn) [Example 33, 4-(4-chlorobenzylsulfinyl)-1-hydroxy-8-methyl imidazo [1,5-d][1.2.4]triazine]			4 * %
